Results from US20250101038A1, “COMPOUNDS” (priority 2021, published 2025).

Columns and labels:
5-HT2B receptor = molecular target: T1, 5-HT2B receptor (Homo sapiens, UniProt P41595); assay: cell-based; conditions: agonist activity, Ca2+ flux, CHO-K1 cells; for EC50: read-out: 5-HT2B EC50
T1 construct: host or cells: CHO-K1

5-HT2A receptor = molecular target: T2, 5-HT2A receptor (Homo sapiens, UniProt P28223); assay: FLIPR Ca2+ flux functional assay, 5-HT2A; assay type: cell-based; conditions: agonist activity, Ca2+ flux, HEK293 cells; for EC50: read-out: 5-HT2A EC50
T2 construct: host or cells: HEK293

5-HT2C receptor = molecular target: T3, 5-HT2C receptor (Homo sapiens, UniProt P28335); assay: cell-based; conditions: agonist activity, Ca2+ flux, HEK293 cells; for EC50: read-out: 5-HT2C EC50
T3 construct: host or cells: HEK293
T3 sequence (P28335 33-458): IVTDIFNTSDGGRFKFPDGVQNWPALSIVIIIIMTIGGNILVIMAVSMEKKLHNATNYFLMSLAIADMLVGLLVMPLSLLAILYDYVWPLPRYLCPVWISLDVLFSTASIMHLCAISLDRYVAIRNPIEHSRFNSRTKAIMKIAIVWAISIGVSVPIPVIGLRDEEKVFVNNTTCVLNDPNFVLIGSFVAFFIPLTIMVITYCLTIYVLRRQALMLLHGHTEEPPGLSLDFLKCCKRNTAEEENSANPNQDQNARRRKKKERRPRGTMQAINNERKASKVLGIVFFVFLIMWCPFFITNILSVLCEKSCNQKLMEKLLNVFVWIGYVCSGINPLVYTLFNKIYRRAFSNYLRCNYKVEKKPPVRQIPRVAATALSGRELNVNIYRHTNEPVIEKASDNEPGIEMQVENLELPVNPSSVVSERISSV

T1 sequence (P41595 whole entry): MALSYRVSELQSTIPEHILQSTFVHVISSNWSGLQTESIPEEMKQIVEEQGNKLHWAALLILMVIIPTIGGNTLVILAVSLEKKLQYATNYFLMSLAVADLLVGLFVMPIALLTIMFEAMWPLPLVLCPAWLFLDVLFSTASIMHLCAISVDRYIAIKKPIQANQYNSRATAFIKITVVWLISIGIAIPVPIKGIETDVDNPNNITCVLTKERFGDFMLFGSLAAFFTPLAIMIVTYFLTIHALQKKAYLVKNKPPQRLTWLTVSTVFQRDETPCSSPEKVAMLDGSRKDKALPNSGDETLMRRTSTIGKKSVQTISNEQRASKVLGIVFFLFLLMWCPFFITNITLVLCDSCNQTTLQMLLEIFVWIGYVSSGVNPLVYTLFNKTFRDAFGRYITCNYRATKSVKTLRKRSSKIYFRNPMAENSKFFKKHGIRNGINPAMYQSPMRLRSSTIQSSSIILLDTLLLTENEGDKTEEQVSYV
T2 sequence (P28223 whole entry): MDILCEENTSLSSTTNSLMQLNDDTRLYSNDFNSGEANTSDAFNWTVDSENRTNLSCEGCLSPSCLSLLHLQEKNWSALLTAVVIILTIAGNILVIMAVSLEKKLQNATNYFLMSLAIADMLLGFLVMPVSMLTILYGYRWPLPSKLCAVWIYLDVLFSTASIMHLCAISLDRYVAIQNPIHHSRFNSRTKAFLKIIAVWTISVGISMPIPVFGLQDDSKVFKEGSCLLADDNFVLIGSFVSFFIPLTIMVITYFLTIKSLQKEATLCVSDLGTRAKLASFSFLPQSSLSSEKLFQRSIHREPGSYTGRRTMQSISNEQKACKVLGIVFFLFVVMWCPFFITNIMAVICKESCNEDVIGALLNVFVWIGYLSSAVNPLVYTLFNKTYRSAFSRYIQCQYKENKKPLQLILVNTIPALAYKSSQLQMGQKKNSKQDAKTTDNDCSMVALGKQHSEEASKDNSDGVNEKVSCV

SMILES | Emax (5-HT2B receptor) | EC50 (5-HT2B receptor) | Emax (5-HT2A receptor) | EC50 (5-HT2A receptor) | Emax (5-HT2C receptor) | EC50 (5-HT2C receptor)
COc1cc(F)cc2[nH]cc(CCN(C)C)c12 [Example P-14, 2-(6-fluoro-4-methoxy-1H-indol-3-yl)-N,N-dimethylethan-1-amine] | 0.17% | > 10 µM | 87.2% | 0.0129 µM | 75.7% | 0.0026 µM
CCN(CC)CCc1c[nH]c2c(F)ccc(OC)c12 [Example P-104, N,N-diethyl-2-(7-fluoro-4-methoxy-1H-indol-3-yl)ethan-1-amine] | 13.1% | > 10 µM | 77.5% | 0.0283 µM | 52.5% | 8.18 µM
COc1ccc2[nH]cc(CCN(C)C(C)C)c2c1C [Example P-38, N-(2-(5-methoxy-4-methyl-1H-indol-3-yl)ethyl)-N-methylpropan-2-amine] | 45.4% | 0.659 µM | 83.3% | 0.189 µM | 23.7% | > 10 µM
COc1ccc(C)c2[nH]cc(CCN(C)C(C)C)c12 [Example P-81, N-(2-(4-methoxy-7-methyl-1H-indol-3-yl)ethyl)-N-methylpropan-2-amine] | 0.59% | > 10 µM | 41.4% | 0.126 µM | 38.8% | 0.764 µM
CC(C)N(C)CCc1c[nH]c2cc(F)cc(F)c12 [Example P-149, N-(2-(4,6-difluoro-1H-indol-3-yl)ethyl)-N-methylpropan-2-amine] | 30.1% | ≥ 10 µM | 66.8% | 0.0524 µM | 30.1% | 
CN(C)CCc1c[nH]c2c(F)cc(F)cc12 [Example P-156, 2-(5,7-difluoro-1H-indol-3-yl)-N,N-dimethylethan-1-amine] | -4.13% | > 10 µM | 48% | 0.0411 µM | 85.2% | 0.0113 µM
COc1cc(F)cc2[nH]cc(CCN(C(C)C)C(C)C)c12 [Example P-100, N-(2-(6-fluoro-4-methoxy-1H-indol-3-yl)ethyl)-N-isopropylpropan-2-amine] | 128% | 0.436 µM | 91.3% | 0.0514 µM | 76.9% | 0.864 µM
